Legend:
PC-3 cells = test: Cell proliferation assay (BrdU incorporation); assay type: cell-based; settings: Homo sapiens, serum-free, 0.6 μM, relative to vehicle control (1 unit), 18 h + 6 h BrdU, read-out: Units of BrdU incorporation
Protocol: PC-3 cancer cell lines were propagated in D-MEM (Gibco 21885) supplemented with 10% Foetal calf serum. 15000 cells per well were seeded in 96 well plates and incubated overnight. The culture media was changed to serum-free D-MEM for 24 h. The culture media was then changed to serum free D-MEM containing either 0.2% DMSO as vehicle control or 0.3, 0.6, 1.2 or 2.5 μM (or 1.25, 2.5, 5, 10 μM (as indicated in Table 1 below)) of the selected compounds of Example 1 to Example 8 in 0.2% DMSO in quadruplicate. After 18 h incubation, BrdU was added according to manufacturer's recommendations. After 6 h incubation in the presence of BrdU, the culture media was removed and BrdU incorporation was measured using “Cell Proliferation ELISA, BrdU colorimetric” Roche (11647229001) according to manufacturer's recommendations.
Proliferation rate of PC-3 cells are reduced by relevant concentrations of the test compounds as measured by BrdU incorporation.

AMPK = test: Activation of AMPK: Western blot of AMPK (Thr172) phosphorylation in PC3 cells; assay type: cell-based, human; settings: PC3 cells starved 24 h serum-free; 0.3, 0.6, 1.2 and 2.5 μM for 4 h
Protocol: After starvation of PC3 cells in serum-free medium for 24 h, 0.3, 0.6, 1.2 and 2.5 μM of the compound of Example 1 or the compound of Example 2c was added and incubated for an additional 4 h. The Figure provides representative immunoblots of AMPK phosphorylation by the compound of Example 1 or the compound of Example 2c.
After starvation of PC3 cells in serum-free medium for 16 h, 1 and 5 μM of the selected compounds were added and incubated for an additional 4 h. The Figure provides representative immunoblots of the total level of AMPK (Pan-AMPK) and the level of AMPK and acetyl-CoA carboxylase phosphorylation by the selected compounds of the examples. The selected compounds of the examples stimulate AMPK phosphorylation in PC3 cells and induce the phosphorylation of acetyl-CoA carboxylase.
Selected compounds of Examples 1, 4 to 6 and 8 were prepared. A stock solution of […] was prepared by dissolving the compound in 100% DMSO.
Human PC3 cells were purchased from LGC Promochem-ATCC (ATCC catalog no CRL-1435). […]
PC3 cells were lysed in buffer (100 mM TRIS pH 6.8, 2% w/v Sodium dodecylsulfate (SDS), 10 mM NaF, 10 mM 3-glycerophosphate, 1 mM Na Vanadate). […] Protein concentrations of the lysates were measured using a BCA protein assay kit (Pierce #23225). […]

PP2C-α1 = biological target: T1, PP2C-α1 (Homo sapiens, UniProt P35813); test: Dephosphorylation of PP2C assay (PP2C-α1 mediated dephosphorylation of AMPK trimer); assay type: biochemical; settings: 2.5, 5 and 10 μM; AMPK trimer α1/β1/γ1, 20 min, 30° C.
T1 construct: purchased Abcam (PP2C-α1); Invitrogen (AMPK trimer) Ab51205; PV4672
T1 sequence (P35813 1-382): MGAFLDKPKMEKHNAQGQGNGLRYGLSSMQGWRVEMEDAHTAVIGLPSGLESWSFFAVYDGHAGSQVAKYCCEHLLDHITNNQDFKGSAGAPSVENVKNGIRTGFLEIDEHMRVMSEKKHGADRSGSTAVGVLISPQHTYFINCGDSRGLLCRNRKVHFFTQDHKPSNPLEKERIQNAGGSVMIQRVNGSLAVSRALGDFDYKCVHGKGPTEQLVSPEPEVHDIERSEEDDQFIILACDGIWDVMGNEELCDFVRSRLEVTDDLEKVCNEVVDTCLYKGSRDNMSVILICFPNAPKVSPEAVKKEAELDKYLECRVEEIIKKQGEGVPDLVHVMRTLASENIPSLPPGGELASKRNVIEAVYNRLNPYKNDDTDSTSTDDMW
Protocol: The compounds were tested in the assay at concentrations of 2.5, 5 and 10 μM (as depicted in the figure).
Hyperphosphosporylated AMPK trimer 10 (ng) (α1/β1/γ1) from Invitrogen (PV4672) was incubated in a buffer containing: 40 mM Hepes pH 7.45, 2 mM MnCl2, 0.5 mM DTT and 0.125 ng recombinant PP2C-α1 (Abcam Ab51205) in the presence or absence of potential inhibitors of the interaction/enzymatic reaction in at total volume of 10 μL for 20 minutes in 30° C. The reaction was terminated by addition of 40 μL stop solution containing 1% Bovine Serum Albumin (BSA), 10 mM EDTA and anti Phospho-AMPKα (Thr172) Antibody (cell signaling #2531) at a dilution of 1/1000. The samples were transferred to glutathione coated 96 well plated (Pierce #15140) and incubated O/N at +4° C. The plate was washed 3×200 μL in PBS/0.05% Triton X-100. The plate was incubated with PBS/1% BSA and horse radish peroxidase conjugated goat-anti rabbit antibody (Jackson immunoresearch Laboratories Inc. #111-035-003) at a dilution of 1/10 000 for 2 h in room temperature. The plate was washed 3×200 μL in PBS/0.05% Triton X-100. The assay was developed by addition of 100 μL Liquid Substrate System for ELISA (Sigma, T0440) for 5-30 min. The developing reaction was terminated by addition of 25 μL […]. Absorbance was measured at 450 nm, where absorbance correlates to amount p-T172 AMPK.

| SMILES | activity at 0.6 µM (PC-3 cells) [%] | AMPK phosphorylation (immunoblot, FIG. 1) (AMPK) | PP2C-α1 mediated dephosphorylation of AMPK (FIG. 3) (PP2C-α1) |
| --- | --- | --- | --- |
| O=c1[nH]s/c(=N\c2ccc(Cl)c(Cl)c2)n1Cc1cccc(C(F)(F)F)c1 [Example 1, 5-(3,4-dichlorophenyl)imino-4-[[3-(trifluoromethyl)phenyl]methyl]-1,2,4-thiadiazolidin-3-one] | 39 | stimulates AMPK phosphorylation | reduce PP2C-α1 mediated dephosphorylation of AMPK |
| O=c1[nH]s/c(=N\c2ccc(Cl)c(Cl)c2)n1Cc1ccc(F)c(F)c1 [Example 2c, 5-(3,4-dichlorophenyl)imino-4-[(3,4-difluorophenyl)methyl]-1,2,4-thiadiazolidin-3-one] | 34 | stimulates AMPK phosphorylation | reduce PP2C-α1 mediated dephosphorylation of AMPK |

Reference: patent US9675596B2, “1,2,4-thiazolidin-3-one derivatives and their use in the treatment of cancer” (Baltic Bio AB, priority 2009, dated 2017)
